The values below come from PubChem BioAssay (NCI).

For this assay, the system named is MDA-MB-468 breast. The assay can be described thus: NCI-60 cell line screen, 48 h.

“And” between values parts separate entries of the source, which are not always exact repeats. Equal entries are not always repeated.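 Each compound was tested at five concentrations against cells in 96-well plates for 48 hours. GI50 is the concentration that inhibits growth by half. At the TGI there is no net growth.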

As for `CNCCN(C)Cc1cn[nH]c1-c1ccc(OC2CC(OCCC3CCOCC3)C2)cc1` (centres undefined), the GI50 was 33700 nM and the TGI was over 100 µM.

Regarding `COCCOC1=C(Cl)C(=O)c2c(O)ccc(O)c2C1=O`, the GI50 was 899 nM and the TGI turned out to be 2.45 µM.

On to `Cc1cc(C#Cc2ccccc2)ccc1-n1c(/C=C/c2cc(O)ccc2O)nc2ccccc2c1=O`, for which the GI50 is 1610 nM and the TGI came to 4.19 µM.

In the case of `CCCc1n(Cc2ccc3ccccc3n2)cc[n+]1Cc1ccc2ccccc2n1`, the GI50 was 232 nM and the TGI is 1.55 µM.

For the compound `O=C1NC(=N[C@H](CO)c2ccccc2)S/C1=C\c1ccc2ncccc2c1`, the GI50 is 2060 nM and the TGI amounted to 8.97 µM.

`CNCCNc1nc2ccccc2c2c(=O)c3cccc(C)c3sc12`: the GI50 was 892 nM and the TGI came to 1.94 µM.

On to `COc1ccc2c(c1)N(CCO)C1=C(C(=O)OC1)C2c1ccc(OC)c(OC)c1` (centres undefined), for which the GI50 was 1740 nM and the TGI worked out at 7.57 µM.

On to `O=C(Nc1ccccc1)Nc1ccc(Cl)c(Cl)c1`, for which the GI50 is 2830 nM and the TGI is 13.9 µM.

In the case of `COC(=O)[C@]12CC[C@@H](C)[C@H](C)[C@@H]1C1=CC[C@@H]3[C@@]4(C)CC(=O)[C@H](O)[C@@](C)(CO)[C@@H]4C(=O)C[C@@]3(C)[C@]1(C)CC2`, the GI50 is 15200 nM and the TGI amounted to 32.2 µM.

Compound `CNc1ncc2cc(-c3cc(NC(=O)NCCC(C)(C)C)c(F)cc3C)c(C)nc2n1` registered a TGI of over 67.1 µM.

Turning to `CC1(O)COCCCCOc2c(CN)cccc2NC(=O)c2nc(cnc2N)-c2ccc(cc2)S(=O)(=O)C(C)(C)C1` (centres undefined), the GI50 was 939 nM and the TGI was 2.52 µM.

Consider `COc1cc(-c2nn(-c3cccc(NC(=O)CCN4CCN(C)CC4)c3)cc2-c2ccncc2)ccc1Cl`, for which the GI50 was 997 nM and the TGI turned out to be 2.85 µM.

`Fc1ccc(-c2c(-c3ccncc3)[nH]c3nccnc23)cc1`: the GI50 is 4480 nM and the TGI is over 21.5 µM.

On to `O=c1c2cc(-c3ccc(F)cc3F)ccc2n(O)c(=O)n1-c1cccc(C(F)(F)F)c1`, for which the GI50 was 1680 nM and the TGI stood at 5.4 µM.

For the compound `O=C1NC(=O)C(c2c[nH]c3ccccc23)=C1c1ccccc1`, the GI50 is over 25000 nM and the TGI was over 25 µM.

In the case of `COc1ccc(-c2nc3sccn3c2-c2ccnc(NCCCNS(=O)(=O)c3ccc(F)cc3)n2)cc1`, the GI50 was 1550 nM and the TGI amounted to 6.48 µM.

Take `CCN1C(=O)N(CC)C2C1NN=c1s/c(=C\c3ccc(OC)cc3)c(=O)n12` (centres undefined): the GI50 is 130 nM and the TGI is over 60.8 µM.

Turning to `OCc1ccc(N(Cc2ccc(F)cc2)CC2CCC2)cc1Cl`, the GI50 was 184 nM and the TGI turned out to be 0.61 µM.

As for `Cn1cc(C2=C(c3c(S(C)=O)n(C)c4ccccc34)C(=O)NC2=O)c2ccccc21` (centres undefined), the GI50 was 6710 nM and the TGI was over 25 µM.

Turning to `FC(F)(F)c1ccc(NCc2nc3ccccc3[nH]2)cc1`, the GI50 is 16700 nM and the TGI worked out at 55.6 µM.

For `CN1CCN(c2ccc(Nc3ncc4cc5n(c4n3)C3(CCCCC3)CNC5=O)nc2)CC1`, the GI50 was 10900 nM and the TGI came to 36 µM.

Take `COc1ccc2nc3cc(Cl)ccc3c(Nc3cc(C(C)C)c(O)cc3C)c2c1`: the GI50 is 1560 nM and the TGI turned out to be 4.6 µM.

Regarding `O=C(CSc1ncc(-c2ccccc2)n1-c1ccccc1)Nc1ccc(-c2nc3ccccc3s2)cc1`, the GI50 was 1350 nM and the TGI was found to be 4.96 µM.

In the case of `CCN(CCO)CCCOc1ccc2c(Nc3cc(CC(=O)Nc4cccc(F)c4)[nH]n3)ncnc2c1`, the GI50 is 1040 nM and 109 nM; the TGI was 18.9 µM.

`O=C1/C(=C/c2ccccc2[N+](=O)[O-])COc2ccc(O)c(O)c21`: the GI50 was 608 nM and the TGI worked out at 2.94 µM.

Take `CCCCOc1ccc(S(=O)(=O)N2CCN(c3nc(C)cc(N4CCOCC4)n3)CC2)cc1`: the GI50 is 2690 nM and the TGI was over 100 µM.

As to `COC(=O)c1ccc2c(C(=Nc3ccc(N(C)C(=O)CN4CCN(C)CC4)cc3)c3ccccc3)c(O)[nH]c2c1`, the GI50 is 2130 nM and the TGI came to 9.78 µM.

Turning to `Oc1cccc(-c2nc(-c3ccccc3)[nH]c2-c2ccncc2)c1`, the GI50 is 2080 nM and the TGI is 11.4 µM.

Consider `CS(=O)(=O)N1CCc2c(-c3cnc(N)nc3)nc(N3CCOCC3)nc21`, for which the GI50 is 305 nM and 264 nM; the TGI is 3 µM and 2.3 µM.

Turning to `CC(C)[C@H](C(=O)O[C@@H]1/C=C/C(=O)O[C@@H](C)CCC/C=C/[C@@H]2C[C@H](O)C[C@H]21)N(C)C`, the GI50 is 1610 nM and the TGI was determined as 4.62 µM.

Turning to `COc1cc(Cn2c(SCC(=O)Nc3ccc(Cl)cc3)nc3ccccc3c2=O)cc(OC)c1OC`, the GI50 was 7220 nM and the TGI was determined as 42.4 µM.

On to `Cc1[nH]n(-c2cccc(Cl)c2)c(=O)c1/C=C1\C=c2ccccc2=CC1=O`, for which the GI50 is 17600 nM and the TGI was 74.7 µM.

Regarding `C#Cc1ccc(-n2c(/C=C/c3ccc4ccccc4c3)nc3ncccc3c2=O)cc1`, the GI50 is 963 nM and the TGI was determined as 7.77 µM.

As to `Cc1cc(N)cc(C)c1-c1c(Br)cc(N)cc1Br`, the GI50 was 2090 nM and the TGI was determined as 6.58 µM.

As for `CCCCNNC(=O)c1ccc(-c2cccc(F)c2F)cc1`, the GI50 was 1710 nM and the TGI came out at 6.06 µM.

For the compound `N#Cc1ccc(/C=C/C(=O)c2ccccc2)cc1`, the GI50 was 5950 nM and 1890 nM; the TGI was 21.1 µM and 5.44 µM.

In the case of `N=C1/C(=C2\Nc3ccccc3S2)CC(=O)N1c1ccc(SC(F)F)cc1`, the GI50 is over 100000 nM and the TGI was over 100 µM.

Regarding `COc1ccc(/C=C2/CN(CCC#N)C/C(=C\c3ccc(OC)cc3)C2=O)cc1`, the GI50 is 1390 nM and the TGI worked out at 4.95 µM.

On to `O=C(O)c1cn(C2CC2)c2cc(N3CCN(Cc4ccc5ccccc5c4O)CC3)c(F)cc2c1=O`, for which the GI50 is 4550 nM and the TGI was over 100 µM.

With `N[C@@H](CSSC[C@H](N)C(=O)N1CCn2cc(-c3ccccc3)nc2[C@@H]1CC1CCCCC1)C(=O)N1CCn2cc(-c3ccccc3)nc2[C@@H]1CC1CCCCC1`, the GI50 was 1070 nM and the TGI was 2.53 µM.
